From patent publication US7741283B2, “Compositions and methods for inhibiting cell proliferation” (St. Louis University, priority 2003, dated 2010)
Entries after “also recorded” stand apart in the source; their conditions may differ.

How the values were obtained:
acidic pH binding sites [1] = molecular target: acidic pH binding sites (Neogale vison, UniProt A0A8C7BSJ2); experiment: Specific binding of 125I-ligands to Mv1Lu cells at acidic pH; parameters: species or system mink; conditions: Mv1Lu cells; for pH of optimal/maximal binding: EGTA/BAPTA- or GST-RAP-sensitive binding, 0° C.
Sequence of acidic pH binding sites (Neogale vison, UniProt A0A8C7BSJ2) (A0A8C7BSJ2 entry or part of it): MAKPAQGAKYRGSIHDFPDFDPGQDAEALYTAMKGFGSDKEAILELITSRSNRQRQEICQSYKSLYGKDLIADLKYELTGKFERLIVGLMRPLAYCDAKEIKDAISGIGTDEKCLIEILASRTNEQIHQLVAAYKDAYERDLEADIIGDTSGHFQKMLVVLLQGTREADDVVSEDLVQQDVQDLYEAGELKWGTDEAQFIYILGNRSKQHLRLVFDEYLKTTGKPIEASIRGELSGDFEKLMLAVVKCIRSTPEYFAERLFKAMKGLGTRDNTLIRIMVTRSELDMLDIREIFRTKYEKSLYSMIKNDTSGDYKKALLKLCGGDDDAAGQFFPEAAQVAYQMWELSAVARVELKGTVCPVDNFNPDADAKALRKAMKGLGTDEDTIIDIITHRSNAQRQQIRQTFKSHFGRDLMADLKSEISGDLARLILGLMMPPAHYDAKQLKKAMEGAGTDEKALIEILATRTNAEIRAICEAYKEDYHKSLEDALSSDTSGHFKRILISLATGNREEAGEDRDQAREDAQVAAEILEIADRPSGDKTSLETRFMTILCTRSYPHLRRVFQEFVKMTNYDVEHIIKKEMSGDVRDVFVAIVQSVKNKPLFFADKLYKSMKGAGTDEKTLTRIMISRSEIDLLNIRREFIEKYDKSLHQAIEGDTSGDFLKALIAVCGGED

PEA-13 cells [2] = experiment: Internalization and degradation of cell surface-bound 125I-α2M*, PEA-13 cells; format: cell-based, mouse; conditions: PEA-13, pH 6.0, 1 hr at 37° C.
acidic pH binding sites [3] = molecular target: T1, acidic pH binding sites (Mus musculus, UniProt P14824); experiment: Specific binding of 125I-ligands to MEF cells at acidic pH; conditions: MEF cells
T1 sequence (P14824 2-673): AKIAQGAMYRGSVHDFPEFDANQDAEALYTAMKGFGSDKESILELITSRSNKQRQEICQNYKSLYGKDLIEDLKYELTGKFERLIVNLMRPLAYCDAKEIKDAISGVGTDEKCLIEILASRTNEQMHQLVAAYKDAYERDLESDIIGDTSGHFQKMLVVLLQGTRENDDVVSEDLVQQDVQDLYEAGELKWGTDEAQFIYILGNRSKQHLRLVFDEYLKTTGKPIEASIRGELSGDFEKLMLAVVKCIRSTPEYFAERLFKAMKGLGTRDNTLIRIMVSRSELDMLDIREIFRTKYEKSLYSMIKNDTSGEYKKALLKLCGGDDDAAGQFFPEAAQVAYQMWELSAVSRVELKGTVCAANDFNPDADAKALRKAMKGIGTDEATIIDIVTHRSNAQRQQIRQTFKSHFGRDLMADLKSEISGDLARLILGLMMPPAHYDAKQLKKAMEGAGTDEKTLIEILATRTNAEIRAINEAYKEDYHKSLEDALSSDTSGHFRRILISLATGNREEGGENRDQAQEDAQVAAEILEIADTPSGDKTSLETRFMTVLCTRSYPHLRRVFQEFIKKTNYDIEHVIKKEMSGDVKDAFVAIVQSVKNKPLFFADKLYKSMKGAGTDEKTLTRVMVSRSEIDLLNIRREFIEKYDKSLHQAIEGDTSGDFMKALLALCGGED

LRP-1/TβR-V = LRP-1/TβR-V (Homo sapiens, UniProt Q07954); conditions: pH 7.4; read-out: Kd for (high affinity) binding to LRP-1/TβR-V; cited from earlier work
Sequence of LRP-1/TβR-V (Q07954 20-4544): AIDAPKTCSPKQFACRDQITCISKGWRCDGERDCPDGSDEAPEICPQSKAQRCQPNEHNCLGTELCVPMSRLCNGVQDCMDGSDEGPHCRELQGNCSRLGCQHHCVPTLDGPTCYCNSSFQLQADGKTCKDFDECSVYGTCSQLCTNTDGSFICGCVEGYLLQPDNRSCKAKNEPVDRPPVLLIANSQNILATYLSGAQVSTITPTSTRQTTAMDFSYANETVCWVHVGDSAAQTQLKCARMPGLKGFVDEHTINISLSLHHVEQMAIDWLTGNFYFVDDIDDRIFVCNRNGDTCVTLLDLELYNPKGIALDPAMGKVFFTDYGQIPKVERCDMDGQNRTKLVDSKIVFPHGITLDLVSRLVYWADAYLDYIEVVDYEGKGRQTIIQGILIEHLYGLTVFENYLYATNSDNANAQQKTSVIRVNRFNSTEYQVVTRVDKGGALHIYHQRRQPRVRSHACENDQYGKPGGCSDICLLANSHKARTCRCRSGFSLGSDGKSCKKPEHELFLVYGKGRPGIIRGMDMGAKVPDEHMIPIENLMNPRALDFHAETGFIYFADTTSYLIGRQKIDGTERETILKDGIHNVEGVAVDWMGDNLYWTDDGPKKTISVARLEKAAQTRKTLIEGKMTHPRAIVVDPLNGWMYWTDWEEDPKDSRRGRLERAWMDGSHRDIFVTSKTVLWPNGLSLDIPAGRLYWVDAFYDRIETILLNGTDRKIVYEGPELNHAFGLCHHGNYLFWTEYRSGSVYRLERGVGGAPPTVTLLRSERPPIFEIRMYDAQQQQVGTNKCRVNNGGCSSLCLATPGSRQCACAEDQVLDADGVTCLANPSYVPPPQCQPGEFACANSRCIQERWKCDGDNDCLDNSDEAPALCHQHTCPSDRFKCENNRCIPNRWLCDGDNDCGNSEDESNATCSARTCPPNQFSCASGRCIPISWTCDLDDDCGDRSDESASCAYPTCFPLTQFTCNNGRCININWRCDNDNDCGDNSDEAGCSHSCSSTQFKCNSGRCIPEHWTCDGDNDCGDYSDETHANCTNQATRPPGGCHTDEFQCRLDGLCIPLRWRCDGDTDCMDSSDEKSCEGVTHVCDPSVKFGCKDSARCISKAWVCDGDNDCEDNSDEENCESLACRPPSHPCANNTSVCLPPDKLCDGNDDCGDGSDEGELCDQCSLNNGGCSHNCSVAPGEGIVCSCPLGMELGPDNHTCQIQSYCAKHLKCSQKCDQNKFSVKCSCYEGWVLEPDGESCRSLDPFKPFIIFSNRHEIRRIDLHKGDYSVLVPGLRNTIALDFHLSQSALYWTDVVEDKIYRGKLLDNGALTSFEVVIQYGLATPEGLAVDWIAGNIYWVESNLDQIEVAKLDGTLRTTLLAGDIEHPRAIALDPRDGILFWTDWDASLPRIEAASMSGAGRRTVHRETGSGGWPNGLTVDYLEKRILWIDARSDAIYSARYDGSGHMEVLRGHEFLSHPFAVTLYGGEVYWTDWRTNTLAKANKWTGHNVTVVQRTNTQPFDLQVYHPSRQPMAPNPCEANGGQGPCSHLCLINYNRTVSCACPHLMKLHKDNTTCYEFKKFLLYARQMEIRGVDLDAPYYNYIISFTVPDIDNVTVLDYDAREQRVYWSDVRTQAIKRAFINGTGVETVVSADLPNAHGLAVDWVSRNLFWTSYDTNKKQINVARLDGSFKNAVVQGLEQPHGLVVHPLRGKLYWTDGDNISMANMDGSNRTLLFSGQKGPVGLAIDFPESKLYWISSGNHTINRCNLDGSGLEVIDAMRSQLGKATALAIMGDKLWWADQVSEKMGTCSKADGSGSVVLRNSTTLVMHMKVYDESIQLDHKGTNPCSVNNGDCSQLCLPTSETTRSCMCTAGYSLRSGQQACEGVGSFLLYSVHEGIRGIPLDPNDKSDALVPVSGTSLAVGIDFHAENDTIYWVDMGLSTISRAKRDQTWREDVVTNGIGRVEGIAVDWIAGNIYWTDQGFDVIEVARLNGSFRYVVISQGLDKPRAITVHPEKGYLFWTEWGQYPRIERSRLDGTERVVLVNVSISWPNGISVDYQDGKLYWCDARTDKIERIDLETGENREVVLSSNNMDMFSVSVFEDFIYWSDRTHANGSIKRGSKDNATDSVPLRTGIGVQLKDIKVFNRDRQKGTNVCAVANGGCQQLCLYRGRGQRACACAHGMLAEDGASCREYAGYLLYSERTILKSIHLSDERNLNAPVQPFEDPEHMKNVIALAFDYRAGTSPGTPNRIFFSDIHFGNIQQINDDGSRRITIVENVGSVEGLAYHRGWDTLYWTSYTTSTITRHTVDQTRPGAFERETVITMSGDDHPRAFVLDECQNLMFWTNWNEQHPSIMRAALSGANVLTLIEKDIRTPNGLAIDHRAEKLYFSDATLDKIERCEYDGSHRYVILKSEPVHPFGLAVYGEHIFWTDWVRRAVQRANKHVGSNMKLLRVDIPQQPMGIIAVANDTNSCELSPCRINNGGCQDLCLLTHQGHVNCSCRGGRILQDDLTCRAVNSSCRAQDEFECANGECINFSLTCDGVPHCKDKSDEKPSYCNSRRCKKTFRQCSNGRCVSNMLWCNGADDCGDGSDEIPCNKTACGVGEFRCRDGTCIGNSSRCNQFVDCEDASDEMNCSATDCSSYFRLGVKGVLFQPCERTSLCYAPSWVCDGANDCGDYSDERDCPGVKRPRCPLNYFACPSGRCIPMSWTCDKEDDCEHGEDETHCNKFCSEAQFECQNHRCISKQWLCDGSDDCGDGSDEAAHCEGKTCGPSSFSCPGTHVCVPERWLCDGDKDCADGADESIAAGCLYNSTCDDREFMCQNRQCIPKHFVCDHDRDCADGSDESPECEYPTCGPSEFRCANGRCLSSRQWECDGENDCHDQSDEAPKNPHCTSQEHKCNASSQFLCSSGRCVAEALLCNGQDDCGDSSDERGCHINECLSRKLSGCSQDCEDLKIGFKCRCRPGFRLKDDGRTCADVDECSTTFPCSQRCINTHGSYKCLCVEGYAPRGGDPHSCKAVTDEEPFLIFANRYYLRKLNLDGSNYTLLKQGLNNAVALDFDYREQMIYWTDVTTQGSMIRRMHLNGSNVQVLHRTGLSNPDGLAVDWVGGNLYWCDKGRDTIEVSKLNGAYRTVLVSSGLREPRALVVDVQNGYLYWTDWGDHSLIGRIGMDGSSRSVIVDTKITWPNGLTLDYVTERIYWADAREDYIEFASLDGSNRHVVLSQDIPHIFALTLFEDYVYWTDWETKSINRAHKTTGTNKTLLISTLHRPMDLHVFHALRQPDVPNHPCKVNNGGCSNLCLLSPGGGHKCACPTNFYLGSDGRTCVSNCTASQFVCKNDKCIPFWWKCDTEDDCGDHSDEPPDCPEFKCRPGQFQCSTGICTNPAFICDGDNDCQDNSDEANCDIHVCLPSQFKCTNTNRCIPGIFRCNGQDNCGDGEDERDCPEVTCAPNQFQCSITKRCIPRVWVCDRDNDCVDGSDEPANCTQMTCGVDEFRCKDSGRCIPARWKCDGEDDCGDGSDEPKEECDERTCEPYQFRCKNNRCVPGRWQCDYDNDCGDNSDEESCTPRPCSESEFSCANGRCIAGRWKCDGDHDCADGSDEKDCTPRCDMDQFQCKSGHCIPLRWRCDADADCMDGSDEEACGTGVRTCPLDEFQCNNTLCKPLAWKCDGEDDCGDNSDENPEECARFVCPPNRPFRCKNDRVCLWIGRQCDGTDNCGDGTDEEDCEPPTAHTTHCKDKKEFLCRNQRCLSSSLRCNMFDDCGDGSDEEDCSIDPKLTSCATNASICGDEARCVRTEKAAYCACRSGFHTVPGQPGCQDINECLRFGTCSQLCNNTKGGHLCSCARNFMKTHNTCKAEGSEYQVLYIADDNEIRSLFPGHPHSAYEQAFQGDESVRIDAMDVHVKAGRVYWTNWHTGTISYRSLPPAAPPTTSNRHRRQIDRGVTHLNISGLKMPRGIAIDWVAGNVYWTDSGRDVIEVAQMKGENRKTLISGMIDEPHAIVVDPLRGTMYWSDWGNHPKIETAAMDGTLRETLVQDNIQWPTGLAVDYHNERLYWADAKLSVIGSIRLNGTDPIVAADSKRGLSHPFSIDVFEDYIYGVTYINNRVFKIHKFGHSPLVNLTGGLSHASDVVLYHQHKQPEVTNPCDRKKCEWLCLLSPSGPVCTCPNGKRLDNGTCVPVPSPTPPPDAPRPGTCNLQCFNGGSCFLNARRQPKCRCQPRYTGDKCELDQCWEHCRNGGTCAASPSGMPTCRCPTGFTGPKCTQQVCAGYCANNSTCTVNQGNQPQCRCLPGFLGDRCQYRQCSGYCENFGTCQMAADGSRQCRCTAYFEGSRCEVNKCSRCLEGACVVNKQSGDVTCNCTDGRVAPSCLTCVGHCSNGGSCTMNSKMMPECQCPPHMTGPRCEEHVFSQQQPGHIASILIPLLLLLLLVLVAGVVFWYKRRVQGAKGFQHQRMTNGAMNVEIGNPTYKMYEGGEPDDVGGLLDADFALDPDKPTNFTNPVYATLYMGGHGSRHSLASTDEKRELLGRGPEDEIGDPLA

[4] = test system: TβR-V purified from bovine liver plasma membranes; experiment: 125I-IGFBP-3 / 125I-TGF-β1 affinity labeling of purified TβR-V; format: binding; conditions: DSS, β1^25(41-65) 20 μM, RAP 10-40 μg/ml, α2M* 100 nM, lactoferrin 100 nM
acidic pH binding sites [5] = molecular target: T1, acidic pH binding sites; experiment: Specific binding of 125I-ligands to PEA-13 cells at acidic pH; parameters: endogenous in cells; host or cells: PEA-13 (LRP-1-deficient mouse embryonic fibroblasts); conditions: PEA-13 cells
MEF cells [6] = experiment: Internalization and degradation of cell surface-bound 125I-ligand, MEF cells; format: cell-based, mouse; conditions: for Cell surface-bound ligand internalized and degraded: MEF
H1299/LRP cells [7] = experiment: Cell growth (cell number), H1299/LRP cells; format: cell-based, human; conditions: TGF-β1 20 pM or IGFBP-3 1 μg/ml, 3-day
PEA-13 cells [8] = experiment: Cell growth (cell number), PEA-13 cells; format: cell-based, mouse; conditions: TGF-β1 20 pM
Procedure: (§1) FIG. 7 depicts the effect of TGF-β1 on DNA synthesis (A), cell growth (B) and PAI-1 expression (C) in MEF and PEA-13 cells. (A) Cells were treated with various concentrations of TGF-β1 as indicated. DNA synthesis was determined by measuring [methyl-^3H] thymidine incorporation into cellular DNA. The [methyl-^3H] thymidine incorporation in cells treated without TGF-β1 (100,861±3,720 and 103,262±6,722 cpm/well for MEF and PEA-13 cells, respectively) was taken as 0% inhibition. The negative values of inhibition indicate mitogenic activity. […] Each datapoint is the mean±S.D. of quadruplicate determinations. […] Data are representative of six similar experiments. (B) Cells were treated with various concentrations of TGF-β1 as indicated. The cell number was counted after a 4 day incubation. […] The negative values of the inhibition indicate the growth stimulatory activity. Each datapoint is the mean±S.D. of quadruplicate determinations. […] Data are representative of four similar experiments. (C) Cells were treated with various concentrations of TGF-β1 as indicated. The PAI-1 expression in these cells was determined by Northern blot analysis. […] The relative levels of the transcripts were quantified by a PhosphoImager. […]
(§2) Cells were plated at a density of 1-2×10^4 cells/dish in DMEM containing 1% fetal calf serum. The cell number was counted every day or after a 3-day incubation using a hematocytometer. […]

PEA-C11 cells [9] = experiment: Cell growth (cell number), PEA-C11 cells; format: cell-based, mink; conditions: TGF-β1 20 pM, PEA-C11, 4-day
Procedure: (§3) FIG. 6 depicts the effects of IGFBP-3 and TGF-β1 on DNA synthesis (A), cell growth (B) and PAI-1 expression (C) in Mv1Lu and PEA-C11 cells. (A,B) Cells were incubated with various concentrations of IGFBP-3 (a) or TGF-β1 (b) as indicated. DNA synthesis and cell growth were determined by measuring the [methyl-^3H] thymidine incorporation into cellular DNA after 18 hr incubation (A) and by counting cell number after a 4-day incubation (B), respectively. The [methyl-^3H] thymidine incorporation in cells treated without IGFBP-3 and TGF-β1 (29,170±1,657 and 59,947±7,692 cpm/well for Mv1Lu and PEA-C11 cells, respectively) were taken as 0% inhibition. […] Each data point is the mean±S.D. of quadruplicate determinations. […] Data are representative of eight similar experiments. (C) Cells were incubated with various concentrations of TGF-β1 as indicated. After 2 hr at 37° C., the PAI-1 expression was determined by Northern blot analysis. The expression of glyceraldehyde-3-phosphate dehydrogenase (G3PDH) was used as control. The relative levels of the transcripts were quantified by a Phospholmager. Data are representative of four similar experiments.
(§4) Cells were plated at a density of 1-2×10^4 cells/dish in DMEM containing 1% fetal calf serum. The cell number was counted every day or after a 3-day incubation using a hematocytometer. The assays were performed in quadruplicate.

32D/IRS-1 cells = experiment: [methyl-3H] thymidine incorporation, 32D/IRS-1 cells; format: cell-based, murine; conditions: 32D cells expressing IRS-1
PEA-C11 cells [10] = experiment: [methyl-3H] thymidine incorporation, PEA-C11 cells; format: cell-based, mink; conditions: TGF-β1 20 pM
Mv1Lu cells [11] = experiment: [methyl-3H] thymidine incorporation (DNA synthesis), Mv1Lu cells; format: cell-based, mink; conditions: Mv1Lu
IRS-2 [12] = experiment: 32P metabolic labeling and immunoprecipitation of IRS-2, DR26 cells; format: cell-based, mink
H1299/LRP cells [13] = experiment: [methyl-3H] thymidine incorporation, H1299/LRP cells; format: cell-based, human; conditions: various concentrations
H1299/vector cells [14] = experiment: [methyl-3H] thymidine incorporation, H1299/vector cells; format: cell-based, human; conditions: various concentrations
IRS-2 [15] = experiment: 32P metabolic labeling and immunoprecipitation of IRS-2, Mv1Lu cells; format: cell-based, mink; conditions: Mv1Lu; IGFBPs 1 μg/ml; TGF-β1 20 pM
MEF cells [16] = experiment: Cell growth (cell number), MEF cells; format: cell-based, mouse; conditions: TGF-β1 20 pM
Procedure: as §1, §2

Mv1Lu cells [17] = experiment: Cell growth (cell number), Mv1Lu cells; format: cell-based, mink; conditions: TGF-β1 20 pM, 4-day
Procedure: as §3, §4

MEF cells [18] = experiment: [methyl-3H] thymidine incorporation, MEF cells; format: cell-based, mouse; conditions: TGF-β1 20 pM
Procedure: (§5) FIG. 7 depicts the effect of TGF-β1 on DNA synthesis (A), cell growth (B) and PAI-1 expression (C) in MEF and PEA-13 cells. (A) Cells were treated with various concentrations of TGF-β1 as indicated. DNA synthesis was determined by measuring [methyl-^3H] thymidine incorporation into cellular DNA. The [methyl-^3H] thymidine incorporation in cells treated without TGF-β1 (100,861±3,720 and 103,262±6,722 cpm/well for MEF and PEA-13 cells, respectively) was taken as 0% inhibition. The negative values of inhibition indicate mitogenic activity. […] Each datapoint is the mean±S.D. of quadruplicate determinations. […] Data are representative of six similar experiments. (B) Cells were treated with various concentrations of TGF-β1 as indicated. The cell number was counted after a 4 day incubation. […] The negative values of the inhibition indicate the growth stimulatory activity. Each datapoint is the mean±S.D. of quadruplicate determinations. […] Data are representative of four similar experiments. (C) Cells were treated with various concentrations of TGF-β1 as indicated. The PAI-1 expression in these cells was determined by Northern blot analysis. The expression of G3PDH was used as control. The relative levels of the transcripts were quantified by a PhosphoImager. Data are representative of four similar experiments. […]

32D/IR/IRS-2 cells = experiment: [methyl-3H] thymidine incorporation, 32D/IR/IRS-2 cells; format: cell-based, murine; conditions: 32D cells expressing IRS-2 and insulin receptor
PEA-13 cells [19] = experiment: [methyl-3H] thymidine incorporation, PEA-13 cells; format: cell-based, mouse; conditions: TGF-β1 20 pM
Procedure: as §5

[20] = test system: 32D cells expressing vector only; experiment: [methyl-3H] thymidine incorporation, 32D cells transfected with vector only; format: cell-based, murine
H1299/vector cells [21] = experiment: Cell growth (cell number), H1299/vector cells; format: cell-based, human; conditions: TGF-β1 20 pM or IGFBP-3 1 μg/ml, 3-day
[22] = test system: cell surface α2M* receptors; conditions: 30 μM, reversible; cited from earlier work
LRP-1 = molecular target: T2, LRP-1 (Mus musculus, UniProt Q91ZX7); experiment: 125I-α2M* binding to MEF cells at pH 7.4; conditions: pH 7.4; read-out: IC50, inhibition of ^125I-α2M* binding to LRP-1
T2 construct: endogenous in cells; host or cells: MEF (mouse embryonic fibroblasts)

Mv1Lu cells [23] = experiment: Internalization and degradation of cell surface-bound 125I-TGF-β1 or 125I-α2M*, Mv1Lu cells; format: cell-based, mink; conditions: 10 μM, pH 7.4, 1 hr at 37° C.
Procedure: After 1 hr at 37° C., the medium was collected and precipitated with 10% trichloroacetic acid (TCA). The TCA-soluble radioactive material in the medium represented the cellular degradation products of 125I-TGF-β1 or 125I-α2M*. The cells were then treated with trypsin (5 mg/ml), maintained for 20 min at 0° C. and centrifuged. The radioactivity in the supernate and cell pellets represented cell surface-bound and internalized 125I-TGF-β1 or 125I-α2M*, respectively. The experiments were performed in quadruplicate.
After 2.5 hr, cells were washed, then warmed to 37° C.

α2M*: α2M activated by methylamine
Number of binding sites (Scatchard plot) (acidic pH binding sites [1]; pH 5): ~1×10^6 sites/cell
Saturating concentration of binding (acidic pH binding sites [1]; pH 5): ~120 nM
Kd (acidic pH binding sites [1]; pH 5, read-out: Apparent Kd (Scatchard plot)): ~51 nM
pH of optimal/maximal binding (acidic pH binding sites [1]): 5
Cell surface-bound ligand internalized and degraded (PEA-13 cells [2]): ~70%
pH of maximal binding (acidic pH binding sites [3]): 5
Kd (LRP-1/TβR-V): ~0.075 nM
^125I-TGF-β1 binding to purified TβR-V ([4]; 0.1 nM 125I-TGF-β1, […] 0° C.): blocked
^125I-IGFBP-3 binding to purified TβR-V ([4]; 10 nM 125I-IGFBP-3, […] 0° C.): did not inhibit
pH of maximal binding (acidic pH binding sites [5]): 5
IC50 (acidic pH binding sites [5]; acidic pH, read-out: IC50, inhibition of ^125I-α2M* binding): ~120 nM
Cell surface-bound ligand internalized and degraded (MEF cells [6]; pH 6.0, 1 hr at 37° C.): ~70%
Cell surface-bound ligand internalized and degraded (MEF cells [6]; pH 7.4, 1 hr): more than 90%

TGF-β1: human transforming growth factor-β1
Effect on cell growth (H1299/LRP cells [7]): inhibited
Stimulation of cell growth (PEA-13 cells [8]): ≤ 20%
pH of optimal/maximal binding (acidic pH binding sites [1]): 5
Inhibition of cell growth (PEA-C11 cells [9]): ~70%
Growth inhibitory response (DNA synthesis) (32D/IRS-1 cells): potent growth inhibitory response
Inhibition of DNA synthesis (PEA-C11 cells [10]): ~70%
pH of maximal binding (acidic pH binding sites [3]): 5
Inhibition of DNA synthesis (Mv1Lu cells [11]; TGF-β1 0.5 pM): ~75%
Inhibition of DNA synthesis (Mv1Lu cells [11]; TGF-β1 20 pM): 90-100%
32P-labeled phosphorylation of IRS-2 (IRS-2 [12]; TGF-β1 alone): capable of stimulating
Dephosphorylation of IRS-2 (IRS-2 [12]; TGF-β1 up to 400 pM): did not induce dephosphorylation
Effect on DNA synthesis (H1299/LRP cells [13]): inhibited
Effect on DNA synthesis (H1299/vector cells [14]): acted as mitogens or growth stimulators
Induction of specific dephosphorylation (mobility change) of 32P-labeled IRS-2 (IRS-2 [15]): inability
Inhibition of cell growth (MEF cells [16]): 30-40%
Inhibition of cell growth (Mv1Lu cells [17]): 90-100%
Kd (LRP-1/TβR-V): 0.05 to 0.4 nM
Inhibition of DNA synthesis (MEF cells [18]): 30-40%
Growth inhibitory response (DNA synthesis) (32D/IR/IRS-2 cells): potent growth inhibitory response
Stimulation of DNA synthesis (PEA-13 cells [19]): ≤ 20%
Inhibition of DNA synthesis [20]: minimally or not at all
pH of maximal binding (acidic pH binding sites [5]): 5
Effect on cell growth (H1299/vector cells [21]): acted as mitogens or growth stimulators

CN1CCN(CCCN2c3ccccc3Sc3ccc(C(F)(F)F)cc32)CC1 [trifluoperazine, reference compound]
Inhibition of ^125I-α2M* binding to cells (acidic pH binding sites [3]; pH 5.5, verapamil and W-5 at 100 μM): most potent inhibitors
Depletion of cell surface α2M* receptors [22]: ~50%
IC50 (LRP-1): 25000 to 30000 nM
Degradation of cell surface-bound ^125I-TGF-β1 or ^125I-α2M* (Mv1Lu cells [23]): completely blocked; also recorded: completely inhibits
Degradation of cell surface-bound ^125I-α2M* or ^125I-TGF-β1 (MEF cells [6]; MEF cells, pH 7.4): trifluoperazine-inhibitable degradation
